Patent US20250064983A1, “COMPOSITIONS AND METHODS FOR TREATING A CARDIAC DISEASE” (The Children's Medical Center Corporation, priority 2022, published 2025)
Entries after “also recorded” stand apart in the source; their conditions may differ.

Tested on: LKB1 knockout mice
Assay: Example 5: beat-to-beat variability (EKG) in LKB1 knockout mice (AF model)
Assay type: in vivo, mouse
Excerpt: Two different atrial fibrillation (AF) mouse models were used to test the efficacy of AIP×5 at treating AF of different origins. The two different AF mouse models were liver kinase B1 (LKB1) knock out mice and T-box transcription factor 5 (Tbx5) knock out mice.
LKB1-floxed or Tbx5-floxed mice were used to test the efficacy of AIP×5. AAV-NPPA-Cre was then used to conditionally knock out LKB1 or Tbx5 from the atria of the mice. NPPA is an atria specific promoter, ensuring that Cre recombinase directed knockout of LKB1 or Tbx5 was restricted to the atria. AAV-NPPA-FP (fluorescent protein) was used as a control virus. AAV-NPPA-FP has no Cre, and therefore the gene of interest is not knocked out. Uninjected mice were also included as a control to account for any effects caused by AAV injections. AAV-cTnT-AIP×5 or AAV-cTnT-CN19o were both tested as potential therapies to AF.
In short, P3 LKB1-floxed or Tbx5-floxed mice were injected (or not injected in the uninjected controls), and then EKG measurements of the mice were taken every two weeks starting at P14. At 12 weeks, the mice were sacrificed, and the sacrificed mice were tested for protein expression.
AF was calculated using the standard deviation of the beat-to-beat timing differences. A high beat-to-beat variability when sedated was indicative of atrial misfiring.
Statistical significance in the tests illustrated in FIGS. 10 and 11 was conducted using a 2-way Anova with post-hoc Dunnett's multiple comparisons to control (FP) group.

YKKALHRQEAVDALYKKALHRQEAVDALYKKALHRQEAVDALYKKALHRQEAVDALYKKALHRQEAVDAL [AIP×5]
beat-to-beat variability compared to control (non-LKB1 knockout) mice (2-way Anova with Dunnett's): no statistically significant difference in beat-to-beat variability | suppression of beat-to-beat variability (AAV-cTnT vector, FIG. 10): reduction in beat-to-beat variability; also recorded: effective in suppressing beat-to-beat variability
